Tests used:
human FAAH [1] = target: T1, human FAAH (Homo sapiens, UniProt O00519); assay: FAAH whole cell assay (human Whole cell, FAAH_CHO, AAMCA substrate); type: cell-based; details: CHO cells expressing human FAAH, whole cell format; read-out: human cell_IC50
T1 construct: The full length FAAH was subcloned into the mammalian expression vector, pcDEF.neo, using XbaI and EcoRI restriction sites; expressed in transfected cells
T1 sequence (O00519 1-579): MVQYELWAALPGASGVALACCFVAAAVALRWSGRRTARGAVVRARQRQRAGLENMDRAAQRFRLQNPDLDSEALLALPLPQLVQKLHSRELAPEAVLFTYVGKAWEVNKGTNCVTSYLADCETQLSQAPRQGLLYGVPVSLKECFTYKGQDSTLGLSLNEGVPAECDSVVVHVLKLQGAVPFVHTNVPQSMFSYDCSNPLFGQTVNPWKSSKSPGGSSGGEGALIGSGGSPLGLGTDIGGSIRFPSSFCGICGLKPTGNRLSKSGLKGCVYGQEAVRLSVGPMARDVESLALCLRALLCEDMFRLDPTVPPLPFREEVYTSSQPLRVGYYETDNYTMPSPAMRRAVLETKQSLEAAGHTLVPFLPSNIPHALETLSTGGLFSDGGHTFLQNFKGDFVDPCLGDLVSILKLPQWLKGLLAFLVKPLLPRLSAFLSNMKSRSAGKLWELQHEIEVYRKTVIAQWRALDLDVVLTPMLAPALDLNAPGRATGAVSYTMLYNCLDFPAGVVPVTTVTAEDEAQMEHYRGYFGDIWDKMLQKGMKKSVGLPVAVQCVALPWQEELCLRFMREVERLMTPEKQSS
Source text: (§1) To assist in assay development stable cell lines for human, murine and rat full length FAAH were developed. Human FAAH cDNA (Accession No: NM_001441.1) was purchased from Origene (Rockville, Md.). The full length FAAH was subcloned into the mammalian expression vector, pcDEF.neo, using XbaI and EcoRI restriction sites and used for stable cell line generation.
Murine (accession number NM_010173) and Rat FAAH (accession number NM_024132) was amplified by reverse transcriptase polymerase chain reaction (RT-PCR) from brain cDNA (BD Biosciences, San Jose, Calif.) using primers 1 and 2 or primers 1 and 3 respectively (see Table). The resulting PCR product was ligated into pCR4 TOPO and DNA sequence confirmed. The full length murine FAAH was subcloned into the mammalian expression vector, pcDEFneo using either EcoRI (murine) or KpnI and EcoRI (rat) restriction sites. Chinese hamster ovary cells (CHO) were transfected following manufacturers protocol (AMAXA). Forty eight hours post transfection, cells were trypsinized and transferred to 96 well plates in Iscove's DMEM media supplemented with 2 mM Glutamine, 10% fetal calf serum, 1 mg/ml geneticin and HT Supplement (0.1 mM sodium hypoxanthine, 0.016 mM thymidine) in order to isolate single clones. Following selection in geneticin, individual clones were selected and FAAH activity was assessed using a whole cell fluorescent anandamide assay, modified from Ramarao et al (2005). Following removal of tissue culture media cells were dislodged following addition of Cellstripper (Mediatech, Inc. Manassas, Va.) and transferred to 96 well black clear bottom assay plate, centrifuged at 1,000 rpm for 3 mins and media removed and replaced with assay buffer (50 mM Tris pH8.0, 1 mM EDTA, 0.1% fatty acid free BSA). The reaction was initiated by addition of fluorescent substrate, AMC Arachidonoyl Amide (Cayman Chemical, Ann Arbor, Mich.) to 1 μM and reaction allowed to proceed for 2 hours at room temperature. Release of fluorescence was monitored in a CytoFluor Multiplate Reader. Cells expressing the highest amount of FAAH activity were selected for study with FAAH inhibitors.
(§2) Assays are performed on either cell lysate or microsome fractions prepared as described or in whole cell format employing either the fluorescent substrate AAMCA (Cayman chemical, Ann Arbor, Mich.) or ^3H-anandamide ([ETHANOLAMINE-1-3H] American Radiolabeled Chemicals; 1 mCi/ml). The cell lysate or microsome assay is performed in black PerkinElmer OptiPlates-384F by adding FAAH_CHO (whole cell (shown as human Whole cell or Human WC), cell lysate (shown as human lysate of human LY) or microsome) in assay buffer (50 mM Phosphate, pH 8.0, 1 mM EDTA, 200 mM KCl, 0.2% glycerol, 0.1% fatty acid free BSA) to each well, followed by either DMSO or compound and allowed to incubate at 22-25° C. for fifteen minutes. AAMCA substrate was used to achieve a final concentration of 1 μM and reaction allowed to proceed at room temperature for 1-3 hours. Fluorescent release as a measure of FAAH activity was monitored by reading the plate in an Envision plate Reader (Ex: 360/40 nM; Em: 460/40 nM). Whole cell assay is conducted with cells harvested after rinsing tissue culture flasks three times with Ca^++Mg^++ free PBS, incubating for 10 min in Enzyme free dissociation media and centrifuging for 5 minutes at 1,000 rpm in table top centrifuge. Cells are resuspended in assay buffer at desired cell number in (4×10^4 cells/assay in 96-well format; 1×10^4 cells/assay in 384-well format) and assayed as described.

human FAAH [2] = target: T1, human FAAH; assay: FAAH cell lysate assay (human lysate, FAAH_CHO, AAMCA substrate); type: biochemical; details: lysate of CHO cells expressing human FAAH; read-out: human lysate_IC50
Source text: as §1
CHO cells expressing FAAH were used to prepare either crude cell lysate or microsome fractions. To harvest cells, tissue culture media was decanted, the monolayer washed three times with Ca^++Mg^++ free PBS and cells recovered after 15 mm in enzyme free dissociation media (Millipore Corp, Billerica, Mass.). Cells were collected by centrifuging at 2000 rpm for 15 min. and the cell pellet re-suspended with 50 mM HEPES (pH 7.4) containing 1 mM EDTA and the protease inhibitors aprotinin (1 mg/ml) and leupeptin (100 μM). The suspension was sonicated at 4° C. and the cell lysate recovered after centrifuging at 12,000×g (14,600 rpm, SS34 rotor) for 20 min at 4° C. to form a crude pellet of cell debris, nuclei, peroxisomes, lysosomes, and mitochondria; the supernatant or cell lysate was used for FAAH enzyme assay. In some cases, microsomes fractions enriched in FAAH were prepared by centrifuging the cell lysate further at 27,000 rpm (100,000×g) in SW28 rotor for 50 minutes at 4° C. The pellet containing FAAH-enriched microsomes was re-suspend in 50 mM HEPES, (pH 7.4) 1 mM EDTA, and any remaining DNA sheared by passage of material through a 23 gauge needle and aliquots of enzyme were store at −80° C. prior to use.
(American Radiolabeled Chemicals; 1 mCi/ml) with FAAH (Life Sciences (1995), 56, 1999-2005 and Journal of Pharmacology and Experimented Therapeutics (1997), 283, 729-734), Analytical. Biochemistry (2003), 318:270-5. In addition, routine assays were performed monitoring hydrolysis of araehidonyl-7-amino-4-methylcoumarin amide (AAMCA) by following increase in fluorescence upon release of 7-amino 4-methyl coumarin (λEX=355 nm, (λEM=460 nm). Analytical. Biochemistry (2005). 343:143-51
as §2

IC50 (human FAAH [1]) [nM] | IC50 (human FAAH [2]) [nM] | Compound
13 | 2 | COC(=O)c1ccc(OCc2nc(-c3ccc(F)cc3)oc2Sc2ccc(Cl)cn2)cc1 [Example B2.11, Methyl-4-({5-[(5-chloropyridin-2-yl)sulfanyl]-2-(4-fluorophenyl)-1,3-oxazol-4-yl}methoxy)benzoate]
253 | 59 | O=C(O)c1ccc(OCc2nc(-c3ccc(F)cc3)oc2Sc2ccc(Cl)cn2)cc1 [Example B2.11.1, 4-({5-[(5-chloropyridin-2-yl)sulfanyl]-2-(4-fluorophenyl)-1,3-oxazol-4-yl}methoxy)benzoic acid]
14 | 3 | CCNC(=O)c1ccc(OCc2nc(-c3ccc(F)cc3)oc2Sc2ccc(Cl)cn2)cc1 [Example B2.11.2, 4-({5-[(5-chloropyridin-2-yl)sulfanyl]-2-(4-fluorophenyl)-1,3-oxazol-4-yl}methoxy)-N-ethylbenzamide]
1450 | 149 | CN(C)C(=O)c1ccc(OCc2nc(-c3ccc(F)cc3)oc2Sc2ccc(Cl)cn2)cc1 [Example B2.11.3, 4-({5-[(5-chloropyridin-2-yl)sulfanyl]-2-(4-fluorophenyl)-1,3-oxazol-4-yl}methoxy)-N,N-dimethylbenzamide]
5 | 3 | CNC(=O)c1ccc(OCc2nc(-c3ccc(F)cc3)oc2Sc2ccc(Cl)cn2)cc1 [Example B2.11.4, 4-({5-[(5-chloropyridin-2-yl)sulfanyl]-2-(4-fluorophenyl)-1,3-oxazol-4-yl}methoxy)-N-methylbenzamide]
22 | 5 | O=C(NCC(F)(F)F)c1ccc(OCc2nc(-c3ccc(F)cc3)oc2Sc2ccc(Cl)cn2)cc1 [Example B2.11.5, 4-({5-[(5-chloropyridin-2-yl)sulfanyl]-2-(4-fluorophenyl)-1,3-oxazol-4-yl}methoxy)-N-(2,2,2-trifluoroethyl)benzamide]
2150 | 807 | Cn1ncnc1COCc1nc(-c2ccc(F)cc2)oc1Sc1ccc(Cl)cn1 [Example B2.12, 5-chloro-2-{[2-(4-fluorophenyl)-4-{[(1-methyl-1H-1,2,4-triazol-5-yl)methoxy]methyl}-1,3-oxazol-5-yl]sulfanyl}pyridine]
3360 | 902 | Fc1ccc(-c2nc(COC3CCNCC3)c(Sc3ccc(Cl)cn3)o2)cc1 [Example B2.14, 5-chloro-2-({2-(4-fluorophenyl)-4-[(piperidin-4-yloxy)methyl]-1,3-oxazol-5-yl}sulfanyl)pyridine]
343 | 88 | Fc1ccc(-c2nc(COC3CCOCC3)c(Sc3ccc(Cl)cn3)o2)cc1 [Example B2.15, 5-chloro-2-({2-(4-fluorophenyl)-4-[(tetrahydro-2H-pyran-4-yloxy)methyl]-1,3-oxazol-5-yl}sulfanyl)pyridine]
10 | 4 | CCNC(=O)c1ccc(OCc2nc(-c3ccc(F)cc3)oc2Sc2ccc(Cl)cn2)nc1 [Example B2.16, 6-({5-[(5-chloropyridin-2-yl)sulfanyl]-2-(4-fluorophenyl)-1,3-oxazol-4-yl}methoxy)-N-ethylpyridine-3-carboxamide]
18 | 3 | COC(=O)c1ccc(NCc2nc(-c3ccc(F)cc3)oc2Sc2ccc(Cl)cn2)cc1 [Example B5.1, methyl 4-[({5-[(5-chloropyridin-2-yl)sulfanyl]-2-(4-fluorophenyl)-1,3-oxazol-4-yl}methyl)amino]benzoate]
8 | 3 | CCNC(=O)c1ccc(NCc2nc(-c3ccc(F)cc3)oc2Sc2ccc(Cl)cn2)cc1 [Example B5.4, 4-[({5-[(5-chloropyridin-2-yl)sulfanyl]-2-(4-fluorophenyl)-1,3-oxazol-4-yl}methyl)amino]-N-ethylbenzamide]
38 | 22 | Fc1ccc(-c2nc(CNc3ccc4[nH]ncc4c3)c(Sc3ccc(Cl)cn3)o2)cc1 [Example B5.6, N-({5-[(5-chloropyridin-2-yl)sulfanyl]-2-(4-fluorophenyl)-1,3-oxazol-4-yl}methyl)-1H-indazol-5-amine]
24 | 6 | CCOC(=O)c1ccc(NCc2nc(-c3ccc(F)cc3)oc2Sc2ccc(Cl)cn2)nc1 [Example B5.7, ethyl 6-[({5-[(5-chloropyridin-2-yl)sulfanyl]-2-(4-fluorophenyl)-1,3-oxazol-4-yl}methyl)amino]pyridine-3-carboxylate]
42 | 17 | CCNC(=O)c1ccc(NCc2nc(-c3ccc(F)cc3)oc2Sc2ccc(Cl)cn2)nc1 [Example B5.8, 6-[({5-[(5-chloropyridin-2-yl)sulfanyl]-2-(4-fluorophenyl)-1,3-oxazol-4-yl}methyl)amino]-N-ethylpyridine-3-carboxamide]
139 | 45 | O[C@H]1CC[C@H](NCc2nc(-c3ccc(F)cc3)oc2Sc2ccc(Cl)cn2)CC1 [Example B5.9, trans-4-[({5-[(5-chloropyridin-2-yl)sulfanyl]-2-(4-fluorophenyl)-1,3-oxazol-4-yl}methyl)amino] cyclohexanol]
31 | 12 | COC(=O)[C@H]1CC[C@H](NCc2nc(-c3ccc(F)cc3)oc2Sc2ccc(Cl)cn2)CC1 [Example B5.10, methyl trans-4-{({5-[(5-chloropyridin-2-yl)sulfanyl]-2-(4-fluorophenyl)-1,3-oxazol-4-yl}methyl)amino] cyclohexanecarboxylate]

— patent US9073879B2, “Oxazole derivatives useful as modulators of FAAH” (MERCK SHARP & DOHME CORP., priority 2010, dated 2015)
